System: 429239-143-T-J1-PDC complex spheroid viability
Experiment: Anticancer human tumor 429239-143-T-J1-PDC patient-derived small cell lung carcinoma cell line growth inhibition [POLQ]
Conditions: for IC50: curve of first compound; for viability, T/C: stronger effect = lower value
Method in brief: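 Complex spheroid viability model combining PDC tumour cells with endothelial (HUVEC) and MSC stromal cells. Novobiocin, ART-558 or RP6685 were tested singly and in combination with standard and investigational anticancer drugs. Each was titrated in half-log steps from near clinical Cmax, or from 10 microM where Cmax was unknown.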

[1] = second compound 0.0316 µM, first compound 0.0316 µM
[2] = second compound 0.0316 µM, first compound 0.1 µM
[3] = second compound 0.0316 µM, first compound 0.316 µM
[4] = second compound 0.0316 µM, first compound 1 µM
[5] = second compound 0.0316 µM, first compound 3.16 µM
[6] = second compound 0.0316 µM, first compound 10 µM
[7] = second compound 0.1 µM, first compound 0.0316 µM
[8] = second compound 0.1 µM, first compound 0.1 µM
[9] = second compound 0.1 µM, first compound 0.316 µM
[10] = second compound 0.1 µM, first compound 1 µM
[11] = second compound 0.1 µM, first compound 3.16 µM
[12] = second compound 0.1 µM, first compound 10 µM
[13] = second compound 0.316 µM, first compound 0.0316 µM
[14] = second compound 0.316 µM, first compound 0.1 µM
[15] = second compound 0.316 µM, first compound 0.316 µM
[16] = second compound 0.316 µM, first compound 1 µM
[17] = second compound 0.316 µM, first compound 3.16 µM
[18] = second compound 0.316 µM, first compound 10 µM
[19] = second compound 1 µM, first compound 0.0316 µM
[20] = second compound 1 µM, first compound 0.1 µM
[21] = second compound 1 µM, first compound 0.316 µM
[22] = second compound 1 µM, first compound 1 µM
[23] = second compound 1 µM, first compound 3.16 µM
[24] = second compound 1 µM, first compound 10 µM
[25] = second compound 3.16 µM, first compound 0.0316 µM
[26] = second compound 3.16 µM, first compound 0.1 µM
[27] = second compound 3.16 µM, first compound 0.316 µM
[28] = second compound 3.16 µM, first compound 1 µM
[29] = second compound 3.16 µM, first compound 3.16 µM
[30] = second compound 3.16 µM, first compound 10 µM
[31] = second compound 10 µM, first compound 0.0316 µM
[32] = second compound 10 µM, first compound 0.1 µM
[33] = second compound 10 µM, first compound 0.316 µM
[34] = second compound 10 µM, first compound 1 µM
[35] = second compound 10 µM, first compound 3.16 µM
[36] = second compound 10 µM, first compound 10 µM
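Also: luminescence signal used as surrogate measure of viable cells; spheroids exposed to compounds for seven days before readout.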
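For viability, T/C in this document: 100% = DMSO vehicle control viability as luminescence relative to vehicle.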

O=c1[nH]cc(F)c(=O)[nH]1 + COC1C(OC(N)=O)C(O)C(Oc2ccc3c(O)c(NC(=O)c4ccc(O)c(CC=C(C)C)c4)c(=O)oc3c2C)OC1(C)C
IC50 (second compound 0.0316 µM): 9.58 µM | IC50 (second compound 0.1 µM): 7.31 µM | IC50 (second compound 0.316 µM): 6.05 µM | IC50 (second compound 1 µM): 9.05 µM | IC50 (second compound 3.16 µM): 7.96 µM | IC50 (second compound 10 µM): 6.66 µM | viability, T/C [1]: 114% | viability, T/C [2]: 111% | viability, T/C [3]: 108% | viability, T/C [4]: 84.5% | viability, T/C [5]: 61.6% | viability, T/C [6]: 49% | viability, T/C [7]: 116% | viability, T/C [8]: 111% | viability, T/C [9]: 105% | viability, T/C [10]: 96.1% | viability, T/C [11]: 57% | viability, T/C [12]: 47.6% | viability, T/C [13]: 96.7% | viability, T/C [14]: 98% | viability, T/C [15]: 97% | viability, T/C [16]: 78.1% | viability, T/C [17]: 62.9% | viability, T/C [18]: 40.9% | viability, T/C [19]: 86.1% | viability, T/C [20]: 104% | viability, T/C [21]: 96.4% | viability, T/C [22]: 82.3% | viability, T/C [23]: 70.5% | viability, T/C [24]: 47.9% | viability, T/C [25]: 99.2% | viability, T/C [26]: 98.8% | viability, T/C [27]: 93% | viability, T/C [28]: 84.1% | viability, T/C [29]: 75.9% | viability, T/C [30]: 43.4% | viability, T/C [31]: 89% | viability, T/C [32]: 97.6% | viability, T/C [33]: 93.8% | viability, T/C [34]: 85.4% | viability, T/C [35]: 57.7% | viability, T/C [36]: 45.8%

COc1cccc2c1C(=O)c1c(O)c3c(c(O)c1C2=O)CC(O)(C(=O)CO)CC3OC1CC(N)C(O)C(C)O1 (stereo unspecified) + Cc1cccc(N(C)C(=O)C2C(O)CCN2c2nc(C)cc(C(F)(F)F)c2C#N)c1
IC50 (second compound 0.0316 µM): 0.0565 µM | IC50 (second compound 0.1 µM): 0.0579 µM | IC50 (second compound 0.316 µM): 0.0478 µM | IC50 (second compound 1 µM): 0.0438 µM | IC50 (second compound 3.16 µM): 0.0469 µM | IC50 (second compound 10 µM): 0.0452 µM | viability, T/C [1]: 83.3% | viability, T/C [2]: 15.2% | viability, T/C [3]: 12.4% | viability, T/C [4]: 0.22% | viability, T/C [5]: 0.12% | viability, T/C [6]: 0.13% | viability, T/C [7]: 84.9% | viability, T/C [8]: 15.6% | viability, T/C [9]: 14.7% | viability, T/C [10]: 0.15% | viability, T/C [11]: 0.11% | viability, T/C [12]: 0.09% | viability, T/C [13]: 69.1% | viability, T/C [14]: 14.3% | viability, T/C [15]: 11.2% | viability, T/C [16]: 0.17% | viability, T/C [17]: 0.16% | viability, T/C [18]: 0.11% | viability, T/C [19]: 62.7% | viability, T/C [20]: 16% | viability, T/C [21]: 14.7% | viability, T/C [22]: 0.15% | viability, T/C [23]: 0.13% | viability, T/C [24]: 0.09% | viability, T/C [25]: 68.1% | viability, T/C [26]: 13.6% | viability, T/C [27]: 12.1% | viability, T/C [28]: 0.14% | viability, T/C [29]: 0.25% | viability, T/C [30]: 0.15% | viability, T/C [31]: 63.8% | viability, T/C [32]: 17.8% | viability, T/C [33]: 14.5% | viability, T/C [34]: 0.17% | viability, T/C [35]: 0.25% | viability, T/C [36]: 0.2%

COc1cc2cc(C(=O)CCC(=O)O)sc2cc1OC + Cc1cccc(N(C)C(=O)C2C(O)CCN2c2nc(C)cc(C(F)(F)F)c2C#N)c1
IC50 (second compound 0.0316 µM): > 10 µM | IC50 (second compound 0.1 µM): > 10 µM | IC50 (second compound 0.316 µM): > 10 µM | IC50 (second compound 1 µM): > 10 µM | IC50 (second compound 3.16 µM): > 10 µM | IC50 (second compound 10 µM): > 10 µM | viability, T/C [1]: 103% | viability, T/C [2]: 114% | viability, T/C [3]: 97.8% | viability, T/C [4]: 106% | viability, T/C [5]: 109% | viability, T/C [6]: 89.5% | viability, T/C [7]: 96.1% | viability, T/C [8]: 97.9% | viability, T/C [9]: 109% | viability, T/C [10]: 99.4% | viability, T/C [11]: 94.4% | viability, T/C [12]: 101% | viability, T/C [13]: 109% | viability, T/C [14]: 118% | viability, T/C [15]: 99.9% | viability, T/C [16]: 106% | viability, T/C [17]: 96% | viability, T/C [18]: 90.1% | viability, T/C [19]: 99.8% | viability, T/C [20]: 99.1% | viability, T/C [21]: 94.1% | viability, T/C [22]: 115% | viability, T/C [23]: 117% | viability, T/C [24]: 91.2% | viability, T/C [25]: 108% | viability, T/C [26]: 96.3% | viability, T/C [27]: 103% | viability, T/C [28]: 105% | viability, T/C [29]: 115% | viability, T/C [30]: 101% | viability, T/C [31]: 104% | viability, T/C [32]: 91.3% | viability, T/C [33]: 99.3% | viability, T/C [34]: 120% | viability, T/C [35]: 110% | viability, T/C [36]: 97.7%
